Reference: article PMC3554773, “Screening of a Specific Peptide Binding to VPAC1 Receptor from a Phage Display Peptide Library” (PLoS ONE, 2013)
No end group written: not given here.

Tests used:
[1] = molecular target: T1, VPAC1 receptor (CHO-K1/VPAC1 cells) (Homo sapiens, UniProt P32241); test: in vitro subtractive panning of 12-mer phage display peptide library on CHO-K1/VPAC1 cells, DNA sequencing of clones; type: binding; conditions: 60 phage clones randomly selected after fourth round of panning; three lacked exogenous sequence
T1 construct: expressed in transfected cells
T1 sequence (P32241 31-457): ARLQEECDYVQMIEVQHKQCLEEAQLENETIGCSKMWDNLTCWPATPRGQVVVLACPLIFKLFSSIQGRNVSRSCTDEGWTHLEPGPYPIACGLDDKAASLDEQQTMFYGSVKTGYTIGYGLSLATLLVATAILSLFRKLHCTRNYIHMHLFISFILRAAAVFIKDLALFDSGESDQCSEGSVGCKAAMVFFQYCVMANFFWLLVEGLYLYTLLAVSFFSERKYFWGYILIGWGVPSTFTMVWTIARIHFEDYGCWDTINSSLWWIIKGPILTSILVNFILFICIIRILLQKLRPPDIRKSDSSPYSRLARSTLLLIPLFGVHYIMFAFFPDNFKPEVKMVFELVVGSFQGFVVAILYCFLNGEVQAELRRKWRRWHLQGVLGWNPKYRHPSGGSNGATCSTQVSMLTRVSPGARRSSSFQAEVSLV

[2] = molecular target: T1, VPAC1 receptor (CHO-K1/VPAC1 cells); test: competitive inhibition ELISA: binding of positive phage clone VP2 to CHO-K1/VPAC1 cells, inhibited by synthetic peptide
Method: Competitive binding inhibition between the positive phage clone and its encoded peptide was evaluated in this study using the competitive inhibition ELISA method. The procedure was similar to that of the cellular ELISA mentioned above in “Cell enzyme-linked immunosorbent assay”. Briefly, CHO-K1/VPAC1 cells were incubated with 100 µl of synthetic peptide encoded by the positive phage clone at various concentrations (0, 0.0001, 0.001, 0.01, 0.1, 1, 10 and 100 µg/ml) in a 96-well plate after it was blocked with 2% BSA. Subsequently, 1×10^10 pfu homologous positive phage clones was added to the cells and incubated at 37°C for 2 h. The unbound phages were washed away, and an HRP-conjugated anti-M13 monoclonal antibody was used to detect the bound phages as described above. The rate of inhibition was calculated using the following formula: rate of inhibition = (A value of inhibition control – A value of inhibition)/A value of inhibition control×100%. An unrelated peptide corresponding to an unrelated phage was used as a negative control.

[3] = molecular target: T1, VPAC1 receptor (CHO-K1/VPAC1 cells); test: cellular ELISA, binding of phage clones to CHO-K1/VPAC1 versus wild-type CHO-K1 cells; conditions: 1×10^10 pfu/well, 37°C, 2 h, HRP-anti-M13, glutaral-fixed cells, triplicate, p<0.01

Sequence: HSTLKLGALTNY [VP11]
- Frequency (number of the peptide sequence appeared in the whole selected phage clones) [1]: 1

Sequence: ETVRQAEELFYV [VP7]
- Frequency (number of the peptide sequence appeared in the whole selected phage clones) [1]: 1

Sequence: GFRFGALHEYNS [VP2]
- IC50 of VP2 peptide compared with IC50 of VIP ([2]; inhibition of phage VP2 binding to CHO-K1/VPAC1 cells, VIP value from Figure 5A): significantly lower than the IC50 of VIP
- IC50 ([2]; peptide 0-100 µg/ml, 1×10^10 pfu phage VP2, 37°C, 2 h): ~0.0132 µM

Sequence: SFRFFPLDMWPH [VP8]
- Frequency (number of the peptide sequence appeared in the whole selected phage clones) [1]: 5
- binding affinity to CHO-K1/VPAC1 cells compared with CHO-K1 cells (OD450 nm) [3]: higher affinity to CHO-K1/VPAC1 cells than CHO-K1 cells

Sequence: TWKFEPLGTFID [VP4]
- Frequency (number of the peptide sequence appeared in the whole selected phage clones) [1]: 3

Sequence: GYTFQPLNEWAI [VP18]
- Frequency (number of the peptide sequence appeared in the whole selected phage clones) [1]: 1

Sequence: GTFHSPLLDHKS [VP14]
- Frequency (number of the peptide sequence appeared in the whole selected phage clones) [1]: 1

Sequence: DTFHSPLVALVS [VP5]
- Frequency (number of the peptide sequence appeared in the whole selected phage clones) [1]: 5
- binding affinity to CHO-K1/VPAC1 cells compared with CHO-K1 cells (OD450 nm) [3]: higher affinity to CHO-K1/VPAC1 cells than CHO-K1 cells

Sequence: NSIALINDTHKR [VP3]
- Frequency (number of the peptide sequence appeared in the whole selected phage clones) [1]: 2

Sequence: YTSHFPLETWPQ [VP6]
- Frequency (number of the peptide sequence appeared in the whole selected phage clones) [1]: 5
- binding affinity to CHO-K1/VPAC1 cells compared with CHO-K1 cells (OD450 nm) [3]: higher affinity to CHO-K1/VPAC1 cells than CHO-K1 cells

Sequence: DTGHSPEPGKVP [VP13]
- Frequency (number of the peptide sequence appeared in the whole selected phage clones) [1]: 1

Sequence: AYTTVPYMATLP [VP9]
- Frequency (number of the peptide sequence appeared in the whole selected phage clones) [1]: 1

Sequence: GWLRSPSLLFSN [VP16]
- Frequency (number of the peptide sequence appeared in the whole selected phage clones) [1]: 2
- binding affinity to CHO-K1/VPAC1 cells compared with CHO-K1 cells (OD450 nm) [3]: higher affinity to CHO-K1/VPAC1 cells than CHO-K1 cells

Sequence: TYTFRPLYEPPL [VP17]
- Frequency (number of the peptide sequence appeared in the whole selected phage clones) [1]: 1

Sequence: TVTFAPLRMWHP [VP15]
- Frequency (number of the peptide sequence appeared in the whole selected phage clones) [1]: 1

Sequence: GGSIAASELEYY [VP10]
- Frequency (number of the peptide sequence appeared in the whole selected phage clones) [1]: 2
- binding affinity to CHO-K1/VPAC1 cells compared with CHO-K1 cells (OD450 nm) [3]: higher affinity to CHO-K1/VPAC1 cells than CHO-K1 cells

Sequence: GSFHSPLLAYVS [VP12]
- Frequency (number of the peptide sequence appeared in the whole selected phage clones) [1]: 1

Sequence: TVKYSTLVEWPY [VP1]
- Frequency (number of the peptide sequence appeared in the whole selected phage clones) [1]: 8
- binding affinity to CHO-K1/VPAC1 cells compared with CHO-K1 cells (OD450 nm) [3]: higher affinity to CHO-K1/VPAC1 cells than CHO-K1 cells
